The values that follow come from patent publication US12673946B2, “Pyrimidin-4(3H)-one derivatives as TRPV4 antagonists” (RaQualia Pharma Inc., priority 2020, dated 2026).

The assay has as its target T1, human TRPV4 (Homo sapiens, UniProt Q9HBA0).
T1 construct: host or cells: tetracycline-inducible Flp-In T-REx 293 cells
In words: Hypotonicity-induced Ca2+ influx (Fluo-4, FDSS). It is filed as cell-based. In outline:
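Flp-In T-REx 293 cells with tetracycline-induced human TRPV4, loaded with Fluo-4 for 60 min at 25 °C. Compound added 5 min before hypotonic mannitol/CaCl2 solution. Ca2+ signal recorded for 4.5 min on FDSS.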

Where [1] appears, read: Flp-In T-REx 293 cells expressing human TRPV4, examples listed under heading 'Human IC50<50 nM'.
The mark [2] stands for this setting: Flp-In T-REx 293 cells stably expressing human TRPV4, compounds listed by potency bin (<10 nM Tables 96-1/96-2, <3 nM Table 97).

T1 sequence (Q9HBA0 whole entry): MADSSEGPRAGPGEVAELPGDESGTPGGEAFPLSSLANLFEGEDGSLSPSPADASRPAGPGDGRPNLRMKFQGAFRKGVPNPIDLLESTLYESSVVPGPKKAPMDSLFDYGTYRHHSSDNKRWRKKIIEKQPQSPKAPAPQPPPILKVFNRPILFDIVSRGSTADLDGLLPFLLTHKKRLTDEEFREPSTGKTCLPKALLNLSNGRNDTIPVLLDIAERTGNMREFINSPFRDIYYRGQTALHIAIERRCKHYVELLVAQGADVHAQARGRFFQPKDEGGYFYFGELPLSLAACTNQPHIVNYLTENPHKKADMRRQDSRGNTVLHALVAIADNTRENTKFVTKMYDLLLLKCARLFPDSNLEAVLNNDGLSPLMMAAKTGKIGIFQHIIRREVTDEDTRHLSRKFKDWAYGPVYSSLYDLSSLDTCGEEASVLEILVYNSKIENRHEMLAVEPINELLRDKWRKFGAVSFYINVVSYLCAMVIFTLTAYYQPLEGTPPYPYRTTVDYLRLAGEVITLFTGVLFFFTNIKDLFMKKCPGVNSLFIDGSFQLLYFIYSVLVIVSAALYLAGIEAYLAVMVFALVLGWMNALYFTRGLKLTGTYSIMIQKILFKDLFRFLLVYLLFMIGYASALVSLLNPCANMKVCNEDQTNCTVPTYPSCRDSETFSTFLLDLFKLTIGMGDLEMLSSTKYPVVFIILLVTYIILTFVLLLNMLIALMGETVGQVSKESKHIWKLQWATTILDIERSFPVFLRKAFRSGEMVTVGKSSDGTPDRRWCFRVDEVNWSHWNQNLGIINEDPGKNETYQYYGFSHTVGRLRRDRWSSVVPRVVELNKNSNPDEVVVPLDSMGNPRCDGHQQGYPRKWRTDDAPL

Usually IC50 stands for the point on the concentration scale where inhibition reaches its midpoint. Low readings indicate inhibition by little substance, high ones a need for much substance. Take `N#Cc1cc(Cl)cc(-c2cccc([C@@H](O)C(=O)N3CCc4nc(C5(c6cccc(Cl)c6)CC5)[nH]c(=O)c4C3)c2)c1` [45-5]: the IC50 under setting [1] is less than 50 nM and the IC50 under setting [2] was less than 3 nM.

Turning to `O=C([C@H](O)c1cccc(-c2cccc(C(F)(F)F)n2)c1)N1CCc2nc(C3(c4cccc(Cl)c4)CC3)[nH]c(=O)c2C1` [45-6], the IC50 runs as follows: under setting [1], less than 50 nM; under setting [2], less than 3 nM.

`O=C([C@H](O)c1cccc(-c2cccc(OC(F)(F)F)c2)c1)N1CCc2nc(C3(c4cccc(Cl)c4)CC3)[nH]c(=O)c2C1` [45-7] registered an IC50 under setting [1] of less than 50 nM and an IC50 under setting [2] of less than 10 nM.

Take `O=C([C@H](O)c1cccc(-c2cccc(Cl)c2)c1)N1CCc2nc(C3(c4cccc(Cl)c4)CC3)[nH]c(=O)c2C1` [45-8]: the IC50 reads like this: under setting [1], less than 50 nM; under setting [2], less than 10 nM.

The molecule `O=C([C@H](O)c1cccc(-c2cc(F)cc(Cl)c2)c1)N1CCc2nc(C3(c4cccc(Cl)c4)CC3)[nH]c(=O)c2C1` [45-9] registered an IC50 under setting [1] of less than 50 nM.

As for `O=C([C@H](O)c1cccc(-c2cc(Cl)cc(C(F)(F)F)c2)c1)N1CCc2nc(C3(c4cccc(Cl)c4)CC3)[nH]c(=O)c2C1` [45-10], the IC50 under setting [1] is less than 50 nM and the IC50 under setting [2] was less than 10 nM.

`O=C([C@H](O)c1cccc(-c2cc(Cl)cc(OC(F)(F)F)c2)c1)N1CCc2nc(C3(c4cccc(Cl)c4)CC3)[nH]c(=O)c2C1` [45-11]: the IC50 is less than 50 nM under setting [1] and less than 10 nM under setting [2].

`O=C(Cc1cccc(-c2cccc(OC(F)(F)F)c2)c1)N1CCc2nc(C3(c4cccc(Cl)c4)CC3)[nH]c(=O)c2C1` [45-12]: the IC50 is, setting by setting: under setting [1], less than 50 nM; under setting [2], less than 10 nM.

For the molecule `CC(C)(C)c1cccc(-c2cccc(CC(=O)N3CCc4nc(C5(c6cccc(Cl)c6)CC5)[nH]c(=O)c4C3)c2)c1` [45-13], the IC50 under setting [1] is less than 50 nM and the IC50 under setting [2] is less than 10 nM.

Turning to `CC(C)c1cncc(C2(c3nc4c(c(=O)[nH]3)CN(C(=O)[C@H](O)c3cccc(-c5ccc(C(C)(C)C)cc5)c3)CC4)CC2)c1` [47-1], the IC50 was less than 50 nM under setting [1] and less than 10 nM under setting [2].

For the molecule `CC(C)c1cncc(C2(c3nc4c(c(=O)[nH]3)CN(C(=O)[C@H](O)c3cccc(-c5ccc(C(F)(F)F)cc5)c3)CC4)CC2)c1` [47-2], the IC50 is less than 50 nM under setting [1] and less than 10 nM under setting [2].

As to `CC(C)c1cncc(C2(c3nc4c(c(=O)[nH]3)CN(C(=O)[C@H](O)c3cccc(-c5ccc(F)cc5)c3)CC4)CC2)c1` [47-3], the IC50 runs as follows: under setting [1], less than 50 nM; under setting [2], less than 10 nM.

Regarding `CC(C)c1cncc(C2(c3nc4c(c(=O)[nH]3)CN(C(=O)[C@H](O)c3cccc(-c5ccc(Cl)cc5)c3)CC4)CC2)c1` [47-4], the IC50 reads like this: under setting [1], less than 50 nM; under setting [2], less than 10 nM.

With `CC(C)c1cncc(C2(c3nc4c(c(=O)[nH]3)CN(C(=O)[C@H](O)c3cccc(-c5ccc(C(F)(F)F)nc5)c3)CC4)CC2)c1` [47-5], the 50% inhibitory concentration (IC50) by setting is: under setting [1], less than 50 nM; under setting [2], less than 10 nM.

For the molecule `CC(C)c1cncc(C2(c3nc4c(c(=O)[nH]3)CN(C(=O)[C@H](O)c3cccc(-c5ccc(OC(F)(F)F)cc5)c3)CC4)CC2)c1` [47-6], the IC50 under setting [1] is less than 50 nM and the IC50 under setting [2] was less than 10 nM.

On to `O=C(C(O)c1cccc(-c2cccc(C(F)(F)F)c2)n1)N1CCc2nc(C3(c4ccccc4)CC3)[nH]c(=O)c2C1` (stereo not shown) [48-1], for which the IC50 was less than 50 nM under setting [1] and less than 10 nM under setting [2].

Regarding `O=C(C(O)c1cccc(-c2cccc(OC(F)(F)F)c2)n1)N1CCc2nc(C3(c4ccccc4)CC3)[nH]c(=O)c2C1` (stereo not shown) [48-2], the IC50 under setting [1] is less than 50 nM and the IC50 under setting [2] was less than 10 nM.

Take `O=C(C(O)c1cccc(-c2ccnc(C(F)(F)F)c2)n1)N1CCc2nc(C3(c4ccccc4)CC3)[nH]c(=O)c2C1` (stereo not shown) [48-3]: the half-maximal inhibitory concentration (IC50) under setting [1] is less than 50 nM and the IC50 under setting [2] is less than 10 nM.

Consider `O=C(C(O)c1cncc(-c2cccc(C(F)(F)F)c2)c1)N1CCc2nc(C3(c4ccccc4)CC3)[nH]c(=O)c2C1` (stereo not shown) [48-4], for which the 50% inhibitory concentration (IC50) is less than 50 nM under setting [1] and less than 10 nM under setting [2].
